Test results reported in ChEMBL document CHEMBL1201862, “PubChem BioAssay data set” (2004).
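Tested at 5 concentrations; 48 h exposure; 96-well plates; endpoints linearly interpolated, else capped at highest concentration. Here, GI50 denotes the concentration required for 50% inhibition of growth.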 Active and inactive are the calls of the source. Rule as the data show it: active = GI50 up to about 1.1 µM and inactive = higher.

How the values were obtained:
Test in all cases: NCI-60 cell line screen, 48 h
[1] = system: HCT-116
[2] = system: 786-0
[3] = system: SR
[4] = system: COLO 205
[5] = system: NCI-H460
[6] = system: OVCAR-5
[7] = system: T47D
[8] = system: M14
[9] = system: HT-29
[10] = system: SF-539
[11] = system: SF-268
[12] = system: KM12
[13] = system: IGROV-1
[14] = system: MDA-N
[15] = system: LOX IMVI
[16] = system: RPMI-8226
[17] = system: SN12C
[18] = system: HOP-62
[19] = system: NCI/ADR-RES
[20] = system: TK-10

Measured: GI50

COc1ccc(-c2oc3c(OC)c(OC)c(OC)c(O)c3c(=O)c2OC)cc1OC
inactive: [1] 24.9 µM | [2] 25.4 µM | [3] 7.87 µM | [4] 25.8 µM | [5] 17.8 µM | [6] 35.6 µM | [7] 2.86 µM | [8] 26.4 µM | [9] 23.6 µM | [10] 19.4 µM | [11] 9.33 µM | [12] 24.4 µM | [13] 3.15 µM | [14] 10.3 µM | [15] 11 µM | [16] 16.7 µM | [17] 26.2 µM | [18] 19.5 µM | [19] 13.3 µM | [20] 36.2 µM

CC1=CC[C@H](C(C)C)C(C(O)[C@@H](C)O[Si](c2ccccc2)(c2ccccc2)C(C)(C)C)C1=O (stereo not given in full)
inactive: [1] 10.6 µM | [2] 15 µM | [3] 14.5 µM | [4] 17.2 µM | [5] 14.8 µM | [6] 18.9 µM | [7] 13.2 µM | [8] 15.3 µM | [9] 11.9 µM | [10] 20.1 µM | [11] 21.1 µM | [12] 18.5 µM | [13] 24.2 µM | [14] 21.2 µM | [15] 21.8 µM | [16] 9.73 µM | [17] 17.9 µM | [18] 20.9 µM | [19] 16.7 µM | [20] 15.7 µM

C/C(=N\[N+](C)(C)C)c1ccc(C)c(C)c1
inactive: [1] 76.9 µM | [2] > 10 µM | [3] 82.6 µM | [4] 14.6 µM | [5] 29.4 µM | [6] 42.4 µM | [7] > 100 µM | [8] > 10 µM | [9] 21.1 µM | [10] > 10 µM | [11] > 10 µM | [12] 24.9 µM | [13] > 100 µM | [14] 45.8 µM | [15] > 10 µM | [16] 54 µM | [17] 20.4 µM | [18] > 10 µM | [19] > 10 µM | [20] 45.9 µM
